# Measured values taken from patent US5624903A, “Phosphoinositol-glycan-peptide with insulin-like action” (Heochst Aktiengesellschaft, priority 1991, dated 1997).
# Legend:
# pieces of diaphragm = assay: Glycogenesis in rat diaphragm pieces ([14C]glucose into glycogen); assay type: cell-based; conditions: 10 nM
# Description: (§1) Small pieces of tissue (5 mm diameter) were punched out of hemidiaphragms (Wistar rat, 60-70 g, no feed restriction) and washed several times.
# (§2) To inactivate the insulin receptor in rat diaphragm, the pieces of tissue are incubated in KRH buffer (0.1 mM glucose in the presence of 50 μg/ml tetradecanoylphorbol acetate) at 25° C., passing O2 through continuously, for 90 min. The pieces of tissue are subsequently washed twice with KRH buffer and used for the relevant tests.
# (§3) The experimental results obtained in the following experiments with tissue or cells in which the insulin receptor has been inactivated are indicated in parentheses in each case.
# This test determines the glycogen synthesis which can be stimulated by insulin in myocytes and which embraces glucose transport through the plasma membrane and the conversion of the glucose into glycogen including the functional insulin signal transmission cascade.
# Pieces of diaphragm are incubated with 50 μM D-[U-^14 C] glucose in KRH buffer in the presence or absence of insulin and PGP at 37° C. for 15 min. […] To determine the glycogen formed, the filters are transferred into TCA (5%), washed with ethanol and acetone and dried, and their radio-activity is determined by scintillation measurement ([^14 C]glycogen [dpm*10^-3 ]). […]
# [1] = test system: plasma membrane vesicles from rat adipocytes; assay: Intrinsic glucose transport activity in isolated plasma membrane vesicles; assay type: biochemical; conditions: 10 nM
# Description: (§4) Adipose tissue from the epididymis (Wistar rat, 160-180 g, no feed restriction) is digested with collagenase, and the resulting isolated adipocytes are washed several times by flotation.
# (§5) To inactivate the insulin receptor in rat adipocytes, the cells are treated with 10 to 40 μg/ml trypsin. After addition of protease inhibitors, the cells are washed twice by flotation, and incubation is continued at 37° C. for 15 min. These cells are then used for the test of stimulation of lipogenesis by the phosphoinositol-glycanpeptides.
# The experimental results obtained in the following experiments with tissue or cells in which the insulin receptor has been inactivated are indicated in parentheses in each case. […]
# Isolated plasma membrane vesicles are incubated in the presence or absence of insulin/PGP at 25° C. for 30 min. The vesicles are subsequently incubated with 50 μM D-[3-^3 H]-glucose and L-[1-^14 C]glucose of the same specific radioactivity at 25° C. for 90 sec. […] Their radioactivity is determined by liquid scintillation measurement. The specific transport (D-[^3 H]glucose/-L-^14 C]glucose [dpm*10^-3 ]) is calculated as the difference between the [^3 H] radioactivity and [^14 C] radioactivity.
# rat adipocytes [2] = assay: Protein synthesis in rat adipocytes ([3H]leucine incorporation); assay type: cell-based; conditions: 10 nM
# Description: as §4, §5, §3
# The stimulation of protein synthesis differs from the metabolic effects of insulin measured in the previous determinations in that it belongs to the long-term actions of insulin (as growth hormone). The assay includes the insulin signal cascade.
# Rat adipocytes are incubated in primary culture in Dulbecco's modified essential medium (DMEM) deplete in leucine with 50 μM L-[^3 H]-leucine in the presence of insulin and PGP at 37° C. for 4 hours. […] The cell-associated radioactivity, determined by scintillation measurement, serves as a measure of the protein synthesis and the amino-acid transport through the plasma membrane ([^3 H]leucine [dpm*10^-4 ]).
# rat adipocytes [3] = assay: Lipogenesis in rat adipocytes ([3H]glucose into lipids); assay type: cell-based; conditions: for Lipogenesis ([3H]lipid): 10 nM
# Description: as §4, §5, §3
# This test determines the conversion, which can be stimulated by insulin, of glucose into toluene-soluble products (triglycerides, phospholipids, fatty acids), which requires glucose transport and triglyceride (glycerol 3-P synthesis, esterification)/phospholipid/fatty acid synthesis including the insulin signal transmission cascade.
# Rat adipocytes are incubated in KRH buffer with D-[3-^3 H]glucose (0.2 mM or 1 mM final concentration) in the presence or absence of insulin and PGP at 37° C. for 90 min. The cells are disrupted by adding a toluene-soluble scintillation cocktail, and the lipids are separated from water-soluble products and the incubation medium. After phase separation, the radioactivity incorporated in lipids is determined by scintillation measurement directly without removing the aqueous phase ([^3 H]lipid [dpm*10^-3 ]).
# glycogen synthase = assay: Glycogen synthase activity in rat diaphragm pieces; assay type: cell-based; conditions: 10 nM
# Description: as §1, §2, §3
# The test determines the conversion, which can be stimulated by insulin, of activated glucose (UDP-glucose) into glycogen (glycogen synthase activity) including a functional insulin signal transmission cascade. […]
# Pieces of diaphragm are incubated with D-glucose (0.1 mM) in the presence or absence of insulin and PGP at 37° C. for 30 min. […] The glycogen synthase activity is calculated as the fractional ratio between the I form of the enzyme (independent of glucose 6-phosphate, dephosphorylated, corresponds to the amount of active enzyme in the homogenate) and the D form of the enzyme (dependent on glucose 6-phosphate, phosphorylated, corresponds to the total amount of activatable enzyme in the homogenate) ([^14 C]glycogen [dpm*10^-3 ]).
# [4] = insulin receptor inactivated (value in parentheses)
substance,measurement,setting,value
Insulin: insulin stands for human insulin,Glycogenesis ([14C]glycogen),pieces of diaphragm; rat diaphragm pieces,8.4 dpm*10^-3
same,Glycogenesis ([14C]glycogen),"pieces of diaphragm; rat diaphragm, insulin receptor inactivated (value in parentheses)",4.1 dpm*10^-3
same,Intrinsic glucose transport (specific transport D-[3H]glucose/L-[14C]glucose),[1]; [4],2.3 dpm*10^-3
same,Intrinsic glucose transport (specific transport D-[3H]glucose/L-[14C]glucose),[1]; plasma membrane vesicles,2.5 dpm*10^-3
same,Protein synthesis ([3H]leucine),rat adipocytes [2]; [4],4.0 dpm*10^-4
same,Protein synthesis ([3H]leucine),"rat adipocytes [2]; rat adipocytes, 4 hours",10.1 dpm*10^-4
same,Lipogenesis ([3H]lipid),rat adipocytes [3]; rat adipocytes,11.2 dpm*10^-3
same,Lipogenesis ([3H]lipid),"rat adipocytes [3]; trypsin-treated adipocytes, insulin receptor inactivated (value in parentheses)",1.9 dpm*10^-3
same,Lipogenesis which can be stimulated by insulin (in words),"rat adipocytes [3]; control incubation, adipocytes treated with 10 to 40 μg/ml trypsin",only very little lipogenesis which can be stimulated by insulin
same,Glycogen synthase,glycogen synthase; [4],6.0 dpm*10^-3
same,Glycogen synthase,glycogen synthase; rat diaphragm pieces,10.1 dpm*10^-3
